Legend:
myeloma cell line ARH-77 = assay: Actin staining, localization of 2D7-DB and actin; assay type: cell-based, human; conditions: ARH-77, 30 minutes of pretreatment with inhibitor 0,1 μM
Experimental: Furthermore, actin staining of the cells was performed to examine the localization of 2D7-DB (green) and actin (red) (FIG. 6B). […] On the other hand, actin aggregation due to 2D7-DB was not observed in the bone marrow stromal cell line KM102 expressing HLA-A. Thus, actin aggregation effect and cytotoxic activity by 2D7-DB were considered specific to myeloma cells and lymphoid cells, and while 2D7-DB is useful for myeloma and autoimmune diseases, it was considered to have little effect on normal tissues.

[1] = system: myeloma cell line RPMI 8226; assay: Effects of signal transduction inhibitors on cell injury by 2D7-DB; conditions: 60 minutes of pretreatment, 2D7-DB 1 μg/mL
Experimental: This time, the present inventors further examined the antitumor mechanism of 2D7-DB. First, 60 minutes of pretreatment was performed using various signal transduction inhibitors, and their effects on cell injury of the myeloma cell line RPMI 8226 after 2D7-DB (1 μg/mL) addition were examined (FIG. 6A).

[2] = system: HLA-A expression in IM-9 cells; assay: Effects of IFNs on HLA-A expression (flow cytometry using 2D7); assay type: cell-based, human; conditions: IFN 100 U/mL for 48 hours
Experimental: IM-9 cells were treated with IFN-α (100 U/mL) or IFN-γ (100 U/mL) for 48 hours. Cell surface expression of HLA-A was analyzed by flow cytometry using 2D7. The staining properties of IFN-treated cells are shown by tick lines, and those of untreated cells are shown by solid lines. Negative control staining properties are shown by dotted lines. (B) A graph indicating the enhancement of 2D7-DB-mediated cytotoxicity by IFN is shown. IM-9 cells were treated with IFN-α (100 U/mL) or IFN-γ (100 U/mL) for 48 hours, and then cultured with 2D7-DB (0.1 or 1 μg/mL) for 24 hours. Cell viabilities were determined by WST-8 assays.
Since cell surface expression of HLA class I is enhanced by IFN stimulation, effects of IFNs on HLA-A expression and 2D7-DB-mediated cytotoxicity were examined using IM-9 cells. After treating IM-9 cells with IFN-α (100 U/mL, OIF 2,500,000 IU, Otsuka Pharmaceutical) or IFN-γ (100 U/mL, Ogamma 100, Otsuka Pharmaceutical) for 48 hours, flow cytometry was performed. […]
Cell surface expression analysis of HLA class I by flow cytometry was performed as follows using FITC-labeled 2D7 mAb or FITC-labeled anti-HLA-ABC common region mAb (Chemicon, San Diego, Calif.). […] Next, the cells were washed twice with PBS, and analyzed using an EPICS XL flow cytometer (Beckman Coulter, Japan). […] HLA class I expression levels were evaluated as GeoMFI using the CellQuest software (BID Biosciences).

**Q.** `C/C1=C/C(=O)O[C@@H]2C[C@@H](CC[C@H](C)/C=C\C=C\CC1)O[C@@](O)([C@@H]1CSC(=O)N1)C2` [latrunculin A] was tested. Which “actin aggregation after 2D7-DB addition” value (myeloma cell line ARH-77) did it give?
**A.** aggregation was not observed

**Q.** And the “effect on cytotoxicity of 2D7-DB” value ([1]; inhibitor 0.1 μM)?
**A.** almost completely suppressed

**Q.** `C=C1[C@@H](C)[C@H]2[C@H](Cc3ccccc3)NC(=O)[C@]23[C@H](OC(C)=O)/C=C/[C@@](C)(O)C(=O)[C@@H](C)C/C=C/[C@H]3[C@@H]1O` [cytochalasin D] was tested. Which “effect on cytotoxicity of 2D7-DB” value ([1]; inhibitor 1 μM) did it give?
**A.** almost completely suppressed

**Q.** How did the “effect on cytotoxicity of 2D7-DB” value ([1]; inhibitor 10 μM) turn out when `COC[C@H]1OC(=O)c2coc3c2[C@@]1(C)C1=C(C3=O)[C@@H]2CCC(=O)[C@@]2(C)C[C@H]1OC(C)=O` [Wortmannin] was run?
**A.** did not show effects

B1: IFN-γ: interferon γ, Ogamma 100, Otsuka Pharmaceutical; amino acid sequence SEQ ID NO: 3 (protein, listed as Homo sapiens)
chain: MKYTSYILAFQLCIVLGSLGCYCQDPYVKEAENLKKYFNAGHSDVADNGTLFLGILKNWKEESDRKIMQSQIVSFYFKLFKNFKDDQSIQKSVETIKEDMNVKFFNSNKKKRDDFEKLTNYSVTDLNVQRKAIHELIQVMAELSPAAKTGKRKRSQMLFRGRRASQ
**Q.** With B1 as the molecule, how does the HLA-A expression [2] read?
**A.** up-regulated

B2: IFN-α: interferon α, OIF 2,500,000 IU, Otsuka Pharmaceutical; amino acid sequence SEQ ID NO: 1 (protein, listed as Homo sapiens)
chain: MASPFALLMVLVVLSCKSSCSLGCDLPETHSLDNRRTLMLLAQMSRISPSSCLMDRHDFGFPQEEFDGNQFQKAPAISVLHELIQQIFNLFTTKDSSAAWDEDLLDKFCTELYQQLNDLEACVMQEERVGETPLMNADSILAVKKYFRRITLYLTEKKYSPCAWEVVRAEIMRSLSLSTNLQERLRRKE
**Q.** For B2, which HLA-A expression [2] is on record?
**A.** up-regulated

— patent US20090022687A1, “Novel Pharmaceuticals That Use Anti-HLA Antibodies” (Chugai Seiyaku Kabushiki Kaisha, priority 2005, published 2009)
